Results: ChEMBL document CHEMBL4627324, “Design and synthesis of novel 2-arylbenzimidazoles as selective mutant isocitrate dehydrogenase 2 R140Q inhibitors” (Bioorg Med Chem Lett, 2020)
Where “and” joins values, the source holds several entries; their conditions need not be identical. Equal entries are not always repeated.

How the values were obtained:
[1] = target: Isocitrate dehydrogenase [NADP], mitochondrial (Homo sapiens, UniProt P48735, R172K); experiment: Inhibition of IDH2 R172K mutant (unknown origin)
[2] = target: Isocitrate dehydrogenase [NADP] cytoplasmic (Homo sapiens, UniProt O75874); experiment: Inhibition of wild type IDH1 (unknown origin)
[3] = target: Isocitrate dehydrogenase [NADP] cytoplasmic (Homo sapiens, UniProt O75874, R132H); experiment: Inhibition of IDH1 R132H mutant (unknown origin)
[4] = target: T1, Isocitrate dehydrogenase [NADP], mitochondrial (Homo sapiens, UniProt P48735); experiment: Inhibition of wild type IDH2 (unknown origin)
T1 sequence (P48735 whole entry): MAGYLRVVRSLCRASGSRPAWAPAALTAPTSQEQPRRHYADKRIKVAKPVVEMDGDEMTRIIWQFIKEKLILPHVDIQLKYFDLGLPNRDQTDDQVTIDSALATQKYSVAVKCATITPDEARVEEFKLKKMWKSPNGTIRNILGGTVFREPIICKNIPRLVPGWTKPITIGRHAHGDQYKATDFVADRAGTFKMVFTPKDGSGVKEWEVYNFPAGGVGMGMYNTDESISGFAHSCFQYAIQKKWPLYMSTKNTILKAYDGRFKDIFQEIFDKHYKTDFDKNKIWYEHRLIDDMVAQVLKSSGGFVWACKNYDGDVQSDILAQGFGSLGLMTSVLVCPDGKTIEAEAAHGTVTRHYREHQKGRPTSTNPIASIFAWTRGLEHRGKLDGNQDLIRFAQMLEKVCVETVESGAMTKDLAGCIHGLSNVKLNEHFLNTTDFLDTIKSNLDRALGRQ

[5] = target: Isocitrate dehydrogenase [NADP] cytoplasmic (Homo sapiens, UniProt O75874, R132C); experiment: Inhibition of IDH1 R132C mutant (unknown origin)
[6] = target: Isocitrate dehydrogenase [NADP], mitochondrial (Homo sapiens, UniProt P48735, R140Q); experiment: Inhibition of IDH2 R140Q mutant (unknown origin)
Sequence of Isocitrate dehydrogenase [NADP], mitochondrial (Homo sapiens, UniProt P48735, R140Q) (P48735 40-452 R140Q limits assumed): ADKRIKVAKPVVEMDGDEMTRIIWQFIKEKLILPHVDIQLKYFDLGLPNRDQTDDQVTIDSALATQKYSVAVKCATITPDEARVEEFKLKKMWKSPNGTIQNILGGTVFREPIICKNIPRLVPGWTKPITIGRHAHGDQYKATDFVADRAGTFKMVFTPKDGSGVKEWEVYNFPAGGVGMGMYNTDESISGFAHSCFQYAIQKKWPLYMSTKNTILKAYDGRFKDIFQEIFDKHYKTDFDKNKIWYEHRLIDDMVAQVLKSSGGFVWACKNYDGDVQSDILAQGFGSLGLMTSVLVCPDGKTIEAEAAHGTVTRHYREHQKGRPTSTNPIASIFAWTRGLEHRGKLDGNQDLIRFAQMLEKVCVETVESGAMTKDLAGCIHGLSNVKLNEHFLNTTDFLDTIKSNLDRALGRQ

Sequence of Isocitrate dehydrogenase [NADP] cytoplasmic (Homo sapiens, UniProt O75874, R132C) (O75874 2-414 R132C limits assumed): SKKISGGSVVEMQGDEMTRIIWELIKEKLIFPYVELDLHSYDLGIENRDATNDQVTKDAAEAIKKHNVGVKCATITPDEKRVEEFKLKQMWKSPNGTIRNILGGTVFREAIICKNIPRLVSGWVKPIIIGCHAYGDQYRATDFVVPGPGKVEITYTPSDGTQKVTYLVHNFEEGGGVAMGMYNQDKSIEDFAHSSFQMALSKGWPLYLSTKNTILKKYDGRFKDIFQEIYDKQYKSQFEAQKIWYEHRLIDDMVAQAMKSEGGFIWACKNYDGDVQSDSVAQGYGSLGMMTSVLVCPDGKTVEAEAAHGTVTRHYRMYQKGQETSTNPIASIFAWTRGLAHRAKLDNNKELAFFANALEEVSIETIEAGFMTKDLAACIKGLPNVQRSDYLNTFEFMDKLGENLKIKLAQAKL
Sequence of Isocitrate dehydrogenase [NADP] cytoplasmic (Homo sapiens, UniProt O75874, R132H) (O75874 2-414 R132H limits assumed): as the sequence (O75874 2-414 R132C limits assumed) above, with C131H counted along it
Sequence of Isocitrate dehydrogenase [NADP], mitochondrial (Homo sapiens, UniProt P48735, R172K) (P48735 40-452 R172K limits assumed): as the sequence (P48735 40-452 R140Q limits assumed) above, with Q101R, R133K counted along it
Sequence of Isocitrate dehydrogenase [NADP] cytoplasmic (Homo sapiens, UniProt O75874) (O75874 whole entry): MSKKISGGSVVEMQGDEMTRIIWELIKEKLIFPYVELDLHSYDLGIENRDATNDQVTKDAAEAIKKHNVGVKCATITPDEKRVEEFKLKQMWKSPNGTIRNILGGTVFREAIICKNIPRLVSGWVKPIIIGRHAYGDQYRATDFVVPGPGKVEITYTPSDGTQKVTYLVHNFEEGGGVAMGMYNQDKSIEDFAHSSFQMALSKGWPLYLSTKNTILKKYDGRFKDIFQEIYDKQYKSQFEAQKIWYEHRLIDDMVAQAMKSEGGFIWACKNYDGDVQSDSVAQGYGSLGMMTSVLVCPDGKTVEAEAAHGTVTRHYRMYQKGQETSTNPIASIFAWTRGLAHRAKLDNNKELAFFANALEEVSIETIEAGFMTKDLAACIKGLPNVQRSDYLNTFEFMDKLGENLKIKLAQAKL

Structure (SMILES)	IC50 [1]	IC50 [2]	IC50 [3]	IC50 [4]	IC50 [5]	IC50 [6]
Cc1ccccc1C(C(=O)NC1CCCCC1)N(C(=O)Cn1ccnc1C)c1cccc(F)c1 (configuration not stated)	> 100 µM	> 100 µM	0.17 µM	> 100 µM	0.39 µM	> 100 µM
O=C(Nc1cccc(C(F)(F)F)c1)Nc1cc(S(=O)(=O)NC2CC2)ccc1-c1ccsc1		> 100 µM	> 100 µM		> 100 µM	
O=S(=O)(NC1CC1)c1ccc(-c2ccsc2)c(Nc2nc3ccc(F)c(F)c3[nH]2)c1						13.8 µM
CCOC(=O)c1ccc2nc(Nc3cc(S(=O)(=O)NC4CC4)ccc3-c3ccsc3)[nH]c2c1						> 100 µM
O=S(=O)(NC1CC1)c1ccc(-c2ccsc2)c(Nc2nc3cc(Br)ccc3[nH]2)c1	> 100 µM	> 100 µM	> 100 µM	> 100 µM	> 100 µM	2.02 µM and 0.26 µM
O=S(=O)(NC1CC1)c1ccc(-c2ccsc2)c(Nc2nc3ccc(F)c(Cl)c3[nH]2)c1						10.3 µM
COC(=O)c1ccc2nc(Nc3cc(S(=O)(=O)NC4CC4)ccc3-c3ccsc3)[nH]c2c1						> 100 µM
N#Cc1ccc2nc(Nc3cc(S(=O)(=O)NC4CC4)ccc3-c3ccsc3)[nH]c2c1						97.9 µM
O=S(=O)(NC1CC1)c1ccc(-c2ccsc2)c(Nc2nc3ccc(Cl)c(Cl)c3[nH]2)c1						2.72 µM
Cc1cc(C)c2[nH]c(Nc3cc(S(=O)(=O)NC4CC4)ccc3-c3ccsc3)nc2c1	51.8 µM	> 100 µM	> 100 µM	> 100 µM	> 100 µM	0.96 µM
Cc1ccc2nc(Nc3cc(S(=O)(=O)NC4CC4)ccc3-c3ccsc3)[nH]c2c1C						1.61 µM
O=S(=O)(NC1CC1)c1ccc(-c2ccsc2)c(Nc2nc3ccc(Br)c(Br)c3[nH]2)c1	> 100 µM	> 100 µM	> 100 µM	> 100 µM	> 100 µM	0.65 µM
O=S(=O)(NC1CC1)c1ccc(-c2ccsc2)c(Nc2nc3cc(F)cc(F)c3[nH]2)c1						4.94 µM
COc1ccc2nc(Nc3cc(S(=O)(=O)NC4CC4)ccc3-c3ccsc3)[nH]c2c1						46.9 µM
O=S(=O)(NC1CC1)c1ccc(-c2ccsc2)c(Nc2nc3ccc(Cl)cc3[nH]2)c1						11.9 µM
O=S(=O)(NC1CC1)c1ccc(-c2ccsc2)c(Nc2nc3ccc(C(F)(F)F)c(Cl)c3[nH]2)c1						4.34 µM
O=S(=O)(NC1CC1)c1ccc(-c2ccsc2)c(Nc2nc3ccc(C(F)(F)F)cc3[nH]2)c1						14.1 µM
O=S(=O)(NC1CC1)c1ccc(-c2ccsc2)c(Nc2nc3cc(F)ccc3[nH]2)c1	78.8 µM	> 100 µM	> 100 µM	> 100 µM	> 100 µM	0.73 µM
O=S(=O)(NC1CC1)c1ccc(-c2ccsc2)c(Nc2nc3ccccc3[nH]2)c1						5.41 µM
CC(C)(O)CNc1nc(Nc2ccnc(C(F)(F)F)c2)nc(-c2cccc(C(F)(F)F)n2)n1 [ENASIDENIB]	1.08 µM	> 100 µM	> 100 µM	> 100 µM	> 100 µM	0.31 µM
